Values of other authors as cited in patent publication US20140234433A1, “Topical Composition for Stimulating Epidermis and Dermis Layers of the Skin” (priority 2013, published 2014).

Tested on: facial skin

In the case of `CC1=C(/C=C/C(C)=C/C=C/C(C)=C/C(=O)O)C(C)(C)CCC1` [tretinoin], the histological characteristics (0.001% dosage) is given as “same histological characteristics as the inactive base material”, the histological response (0.01% and 0.05%) is given as “increased response with an increase in tretinoin concentrations” and the epidermal thickness (24 weeks) is given as “increase”. For the same compound, the “findings in the dermis” value (24 weeks) was “no positive findings”, the melanocytes (24 weeks) was “decrease” and the stratum corneum (24 weeks) was “stratum corneum compactness”. For the same compound, the granular layer thickness (24 weeks, 1 layer to 2-3 layers) was “increase”, the dermal changes (48 weeks of treatment) was “limited” and the “subjects showing erythema, scaling and peeling, and reporting stinging” value (average of the studies) was “approximately 80%”. The “dermal findings on continued use” value (continued use up to 4 years) was “decrease in elastin and perivascular inflammation”.
